# Assay results reported in patent publication US5855885A, “Isolation and production of catalytic antibodies using phage technology” (priority 1994, dated 1999).
# What was measured:
# [1] = tested on: mouse anti-RT3 scFv clone 96 (PCR pattern A); assay: competitive inhibition ELISA, scFv binding to RT3-BSA; settings: 100 uM competitor, preincubated 1 hour at room temperature; ELISA signal normalized to no inhibitor (FIG. 8)
# Experimental: (§1) The clones selected for analysis and their corresponding PCR pattern (see Table 1, Example 4.3) were: 50 (PCR B), 64 (PCR A), 68 (PCR D), 71 (PCR E), 80 (PCR C), 84 (PCR A), 95 (PCR I), 96 (PCR A), and 97 (PCR A). Soluble scFv was purified from 50 ml cultures of each clone using the IMAC protocol described in Example 4.1, except bound antibody was eluted with 50 mM EDTA, 0.5M NaCl. The scFv concentration for each clone was estimated from silver stained SDS polyacrylamide gels by running a portion of the eluted protein on a gel containing appropriate scFv concentration standards. The scFv protein was diluted to 4 ug/ml and then serially diluted 1:2 across 11 wells of RT3-BSA coated ELISA plate. The concentration of scFv giving 50% of the maximum ELISA signal was determined from the titration. This concentration of scFv was used for a subsequent competitive inhibition assay described below.
# (§2) A competitive inhibition ELISA assay was performed by incubating scFV (at a concentration as determined by titration above) with 100 uM of each of the following compounds: RT3 hapten (Compound 7, FIG. 1), left hand portion of RT3 hapten (designated RT3A, Compound 8, FIG. 2), right hand portion of RT3 hapten (designated RT3B, Compound 12, FIG. 3), The left and right hand portions of the expected products from the esteriolytic cleavage of substrate (Compound 15, FIG. 4) designated Product A (Mesitylacetic acid, FIG. 4) and Product B (Compound 13, FIG. 4). The scFv was preincubated with the inhibitor compound in tubes at room temperature for 1 hour prior to addition to RT3-BSA coated ELISA wells. The […] readings have been normalized to a value of 1, which represents the ELISA signal seen for the corresponding scFv in the absence of added competitive inhibitor.
# [2] = tested on: mouse anti-RT3 scFv clone 64 (PCR pattern A); assay: as above; settings: 100 uM competitor, preincubated 1 hour at room temperature; ELISA signal normalized to no inhibitor (FIG. 8)
# Experimental: as §1, §2
# [3] = tested on: mouse anti-RT3 scFv clone 95 (PCR pattern I); assay: as above; settings: 100 uM competitor, preincubated 1 hour at room temperature; ELISA signal normalized to no inhibitor (FIG. 8)
# Experimental: as §1, §2
# [4] = tested on: mouse anti-RT3 scFv clone 97 (PCR pattern A); assay: as above; settings: 100 uM competitor, preincubated 1 hour at room temperature; ELISA signal normalized to no inhibitor (FIG. 8)
# Experimental: as §1, §2
# [5] = tested on: mouse RT3 phage antibody scFv clone 68 (PCR pattern D); assay: as above; settings: 100 uM competitor, preincubated 1 hour at room temperature; ELISA signal normalized to no inhibitor (FIG. 8); clone cross-reacts with BSA
# Experimental: as §1, §2
# [6] = tested on: mouse RT3 phage antibody scFv clone 71 (PCR pattern E); assay: as above; settings: 100 uM competitor, preincubated 1 hour at room temperature; ELISA signal normalized to no inhibitor (FIG. 8); clone cross-reacts with BSA
# Experimental: as §1, §2
# [7] = tested on: mouse anti-RT3 scFv clone 80 (PCR pattern C); assay: as above; settings: 100 uM competitor, preincubated 1 hour at room temperature; ELISA signal normalized to no inhibitor (FIG. 8)
# Experimental: as §1, §2
# [8] = tested on: mouse anti-RT3 scFv clone 84 (PCR pattern A); assay: as above; settings: 100 uM competitor, preincubated 1 hour at room temperature; ELISA signal normalized to no inhibitor (FIG. 8)
# Experimental: as §1, §2
# [9] = tested on: mouse anti-RT3 scFv clone 50 (PCR pattern B); assay: as above; settings: 100 uM competitor, preincubated 1 hour at room temperature; ELISA signal normalized to no inhibitor (FIG. 8)
# Experimental: as §1, §2
# [10] = tested on: catalytic mouse anti-RT3 scFv clone 18; assay: catalytic assay (HPLC), hydrolysis of RT3 substrate by scFv; assay type: biochemical
# Experimental: (§3) To further examine the scFv fragments for catalytic activity, the potentially-catalytic proteins identified in the early screen described above were individually grown and purified. Purification of the scFv was acheived as described in Example 6.1 using either IMAC or affinity chromotagraphy on anti-Myc-Protein A agarose. Assays were performed in the same buffer systems and pH values as in the early screen but the antibodies were tested individually and they were not immobilized but free in solution.
# (§4) From these secondary assays, two scFv molecules, designated 18 and 83, catalytic activity was found. Clone 18 appeared to be active at pH 9.0 but not at pH 7.0 while clone 83 appeared to be active at pH 7.0 but not at pH 9.0 or 5.0. […] These two clones were selected as candidates for large scale purifcation of scFv as described below. The results of these assays are presented in Example 6.4.
# For clone 18 a typical catalytic assay was set up as follows: 50 μl of scFv was added to 145 μl of RT3 substrate (Compound 15, FIG. 4) and 5 μl of water or for some assays 5 μl of RT3 hapten. A blank consisting of 50 μl of water and […] of RT3 substrate was set up to monitor the background hydrolysis of the RT3 substrate. The reaction was allowed to proceed for 6 hours after which samples were frozen at -20° C. to stop the reaction. Samples were analyzed by HPLC as described in example 5.1. […]
# [11] = tested on: catalytic mouse anti-RT3 scFv clone 83; assay: as above; assay type: biochemical
# Experimental: as §3, §4
# Assay of IMAC or HIC purified scFv from clone 83 was done in a similar manner as described for clone 18 with the following exceptions. Substrate was buffered in 25 mM HEPES, pH 7.0, 140 mM NaCl and 0.01% NaN3. Due to the lower background hydrolysis of RT3 substrate at neutral pH, reactions were typically run for 24 hours. A blank was also analyzed and gives a profile similar to the that in FIG. 17B (data not shown).
Structure (SMILES),inhibition of scFv binding to RT3-BSA [1],inhibition of scFv binding to RT3-BSA [2],inhibition of scFv binding to RT3-BSA [3],inhibition of scFv binding to RT3-BSA [4],inhibition of scFv binding to RT3-BSA [5],inhibition of scFv binding to RT3-BSA [6],inhibition of scFv binding to RT3-BSA [7],inhibition of scFv binding to RT3-BSA [8],inhibition of scFv binding to RT3-BSA [9],"catalysis in the presence of RT3 hapten ([10]; IMAC pure scFv, 50 uM RT3 substrate, pH 9.0, 6 hours, 5 μl RT3 hapten added (concentration not given), FIG. 15B)","inhibition of catalytic activity ([10]; secondary screening, pH 9.0, 10 μM antibody, 40 μM substrate, 30 μM hapten)","catalysis in the presence of RT3 hapten ([11]; IMAC pure scFv, RT3 substrate, pH 7.0, 24 hours, RT3 hapten added (concentration not given), FIG. 17B)","inhibition of catalytic activity ([11]; secondary screening, pH 7.0, 10 μM antibody, 40 μM substrate, 30 μM hapten)"
"Cc1cc(C)c(CC(=O)O)c(C)c1 [Product A, Mesitylacetic acid, reference compound]",to a lesser extent,to a lesser extent,–,–,–,–,–,–,–,–,–,–,–
"NC(=O)Cc1ccc(O)cc1 [Product B, 4-Hydroxyphenylacetamide]",No inhibition,No inhibition,No inhibition,No inhibition,No inhibition,No inhibition,No inhibition,No inhibition,No inhibition,–,–,–,–
"Cc1cc(C)c(CP(=O)(O)Oc2ccc(CC(=O)O)cc2)c(C)c1 [RT3 hapten, 4-(carboxymethyl) phenyl-(2,4,6-trimethylphenyl)-methyl phosphonate]",inhibited,inhibited,inhibited,inhibited,did not show inhibition,did not show inhibition,inhibited,inhibited,inhibited,completely abrogated,significantly inhibited,completely abrogated,significantly inhibited
COP(=O)(O)Cc1c(C)cc(C)cc1C [RT3A],binding inhibition,binding inhibition,–,binding inhibition,–,–,–,binding inhibition,binding inhibition,–,–,–,–
